Source: PubChem BioAssay (NCI)
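Cells were grown in 96-well plates and exposed to each compound for 48 hours at five concentrations; endpoints were interpolated linearly between bracketing concentrations, or set to the highest concentration if not reached. The concentration for full growth arrest is given as TGI.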

Each molecule was assayed on MCF7 breast (assay: NCI-60 cell line screen, 48 h).

Compared with `Cc1cccc(N/C(=C(/C(Cl)=C(Cl)Cl)[N+](=O)[O-])n2nnc3ccccc32)c1`, `O=[N+]([O-])/C(C(Cl)=C(Cl)Cl)=C1\Nc2ccc([N+](=O)[O-])cc2N1` is higher in TGI: 50 µM for the first, greater than 100 µM for the second.

First: CC(=O)OC1C=C(C=O)C(O)(C=O)C2(C)CCCC(C)(C)C12 (stereo unspecified)
Second: CC(C)CCCC(C)[C@H]1CC[C@H]2n3c(nnc3-c3ccccc3)CCC[C@]12C (stereo partly specified)
The TGI of the first is 3.8-fold lower: 5.49 µM for the first, 20.7 µM for the second.

`Cc1cn(C2OC(CO[Si](C)(C)C(C)(C)C)/C(=C\C#N)C2O[Si](C)(C)C(C)(C)C)c(=O)[nH]c1=O` (stereo unspecified) and `Cc1ccc(-c2c(C#N)c(-c3ccccc3)n(NS(=O)(=O)c3ccc(C)cc3)c(=O)c2C#N)cc1` cannot be ordered by TGI: greater than 100 µM for the first, greater than 100 µM for the second.

`OC1=C2c3ccccc3NC2Oc2cc(F)ccc21` (stereo unspecified) and `NCC(Cl)C(O)c1cnc(N)[nH]1` (stereo unspecified) cannot be ordered by TGI: greater than 100 µM for the first, greater than 65.5 µM for the second.

Each molecule was assayed on U251 CNS (assay: NCI-60 cell line screen, 48 h).

Compared with `CCOc1cccc(C=Nc2ccccc2SSc2ccccc2N=Cc2cccc(OCC)c2O)c1O`, `CC[C@@]1(O)C(=O)OCc2c1cc1n(c2=O)Cc2c-1nc1ccccc1c2/C=N\NC(=O)C[n+]1ccccc1` is 2.4-fold higher in TGI: 13.2 µM for the first, 32 µM for the second.

Compared with `Cc1c2c(cc3c1C(=O)C(=O)C([C@@H](C)CO)=C3O)C(C)(C)CCC2`, `Cc1[nH]c(=O)[nH]c(=O)c1/C=C/C(=O)NC(CO)CC(C)C` (stereo unspecified) is higher in TGI: 53.8 µM for the first, greater than 375 µM for the second.

Going from `COc1ccc(CC2Cc3ccccc3CCN2)cc1OC` (stereo unspecified) to `CCC1CN2CCc3cc(OC)c(OC)cc3C2CC1CC1c2cc(OC)c(OC)cc2CCN1C(=O)C(N)Cc1ccccc1` (stereo unspecified), the TGI falls from greater than 50 µM to 5.97 µM.

Going from `CN(C)CCn1c(=O)c2ccc(NCCNCCO)c3c(=O)c4ccccc4n(c1=O)c23` to `COc1cc2c(/C=C3/C(=O)Nc4ccc(O)cc43)c(Cl)n(Cc3ccccc3)c2cc1C`, the TGI rises from 3.07 µM to greater than 42.4 µM.

`CN(CCC(=O)N1CC(CCl)c2ccc([N+](=O)[O-])cc21)CCC(=O)N1CC(CCl)c2ccc([N+](=O)[O-])cc21` (stereo unspecified) and `O=[N+]([O-])/C(C(Cl)=C(Cl)Cl)=C1\Nc2ccc([N+](=O)[O-])cc2N1` cannot be ordered by TGI: greater than 100 µM for the first, greater than 100 µM for the second.

Going from `O=C1Cc2c([nH]c3ccc(Br)cc23)-c2cc(Br)ccc2N1` to `OC1=C2c3ccccc3NC2Oc2cc(F)ccc21` (stereo unspecified), the TGI falls from greater than 100 µM to 29.6 µM.

Going from `O=C1CC(Br)c2c(Br)sc(Br)c21` (stereo unspecified) to `CC(C)=CCc1c(O)cc(O)c2c1OC(c1ccc(O)cc1)C(O)C2=O` (stereo unspecified), the TGI rises from 31.1 µM to 74.5 µM (2.4-fold).

Compared with `[O-][n+]1nc(N2CCOCC2)nc2ccccc21`, `CC(C)CCCC(C)[C@H]1CC[C@H]2n3c(nnc3-c3ccccc3)CCC[C@]12C` (stereo partly specified) is lower in TGI: greater than 100 µM for the first, 23.5 µM for the second.

Compared with `COc1ccc(NC(=S)Nc2cc(C)ccn2)cc1`, `Cc1cccc(N/C(=C(/C(Cl)=C(Cl)Cl)[N+](=O)[O-])n2nnc3ccccc32)c1` is lower in TGI: greater than 100 µM for the first, 26.9 µM for the second.

Compared with `N=C1C(=N)c2ccccc2-c2ccccc21.[Cl-].[Ru+2].c1cnc2c(c1)ccc1cccnc12.c1cnc2c(c1)ccc1cccnc12`, `C1=C(CC2=C[P+](c3ccccc3)(c3ccccc3)C=C(c3ccccc3)O2)OC(c2ccccc2)=C[P+]1(c1ccccc1)c1ccccc1` is 60-fold lower in TGI: 73.9 µM for the first, 1.23 µM for the second.

`NCc1ccc(-c2ccc(CN)s2)s1` and `NCC(Cl)C(O)c1cnc(N)[nH]1` (stereo unspecified) cannot be ordered by TGI: greater than 100 µM for the first, greater than 100 µM for the second.

Going from `CC(=O)OC1C=C(C=O)C(O)(C=O)C2(C)CCCC(C)(C)C12` (stereo unspecified) to `Cc1cn(C2OC(CO[Si](C)(C)C(C)(C)C)/C(=C\C#N)C2O[Si](C)(C)C(C)(C)C)c(=O)[nH]c1=O` (stereo unspecified), the TGI rises from 7.39 µM to greater than 100 µM.

`C1C2CC3CC1CC(c1nn4c(C56CC7CC(CC(C7)C5)C6)nnc4s1)(C2)C3` and `Cc1ccc(-c2c(C#N)c(-c3ccccc3)n(NS(=O)(=O)c3ccc(C)cc3)c(=O)c2C#N)cc1` cannot be ordered by TGI: greater than 100 µM for the first, greater than 100 µM for the second.

For `CCCCCCCCCCCCCCCCP(=O)(O)OCC(N)C(=O)O` (stereo unspecified), the TGI was greater than 100 µM.

What follows are molecules tested on SK-MEL-5 melanoma (assay: NCI-60 cell line screen, 48 h).

First: CCOc1cccc(C=Nc2ccccc2SSc2ccccc2N=Cc2cccc(OCC)c2O)c1O
Second: CC[C@@]1(O)C(=O)OCc2c1cc1n(c2=O)Cc2c-1nc1ccccc1c2/C=N\NC(=O)C[n+]1ccccc1
The TGI of the first is 3.6-fold higher: 7.58 µM for the first, 2.09 µM for the second.

First: Cc1c2c(cc3c1C(=O)C(=O)C([C@@H](C)CO)=C3O)C(C)(C)CCC2
Second: Cc1[nH]c(=O)[nH]c(=O)c1/C=C/C(=O)NC(CO)CC(C)C (stereo unspecified)
The TGI of the first is lower: 86.9 µM for the first, greater than 375 µM for the second.

Compared with `CN(C)CCn1c(=O)c2ccc(NCCNCCO)c3c(=O)c4ccccc4n(c1=O)c23`, `COc1cc2c(/C=C3/C(=O)Nc4ccc(O)cc43)c(Cl)n(Cc3ccccc3)c2cc1C` is 3-fold higher in TGI: 0.813 µM for the first, 2.46 µM for the second.

First: CN(CCC(=O)N1CC(CCl)c2ccc([N+](=O)[O-])cc21)CCC(=O)N1CC(CCl)c2ccc([N+](=O)[O-])cc21 (stereo unspecified)
Second: O=[N+]([O-])/C(C(Cl)=C(Cl)Cl)=C1\Nc2ccc([N+](=O)[O-])cc2N1
The TGI of the first is lower: 24.8 µM for the first, greater than 100 µM for the second.

Compared with `O=C1Cc2c([nH]c3ccc(Br)cc23)-c2cc(Br)ccc2N1`, `CC(C)=CCc1c(O)cc(O)c2c1OC(c1ccc(O)cc1)C(O)C2=O` (stereo unspecified) is lower in TGI: greater than 100 µM for the first, 41.4 µM for the second.

Compared with `O=C1CC(Br)c2c(Br)sc(Br)c21` (stereo unspecified), `NCc1ccc(-c2ccc(CN)s2)s1` is higher in TGI: 35.4 µM for the first, greater than 100 µM for the second.

Going from `COc1ccc(NC(=S)Nc2cc(C)ccn2)cc1` to `Cc1ccc(-c2c(C#N)c(-c3ccccc3)n(NS(=O)(=O)c3ccc(C)cc3)c(=O)c2C#N)cc1`, the TGI falls from greater than 100 µM to 62.5 µM.

Compared with `N=C1C(=N)c2ccccc2-c2ccccc21.[Cl-].[Ru+2].c1cnc2c(c1)ccc1cccnc12.c1cnc2c(c1)ccc1cccnc12`, `CCC1CN2CCc3cc(OC)c(OC)cc3C2CC1CC1c2cc(OC)c(OC)cc2CCN1C(=O)C(N)Cc1ccccc1` (stereo unspecified) is 6.4-fold lower in TGI: 34.4 µM for the first, 5.34 µM for the second.

Going from `CC(=O)OC1C=C(C=O)C(O)(C=O)C2(C)CCCC(C)(C)C12` (stereo unspecified) to `CC(C)CCCC(C)[C@H]1CC[C@H]2n3c(nnc3-c3ccccc3)CCC[C@]12C` (stereo partly specified), the TGI rises from 2.2 µM to 25.1 µM (11-fold).

`C1C2CC3CC1CC(c1nn4c(C56CC7CC(CC(C7)C5)C6)nnc4s1)(C2)C3` and `Cc1cn(C2OC(CO[Si](C)(C)C(C)(C)C)/C(=C\C#N)C2O[Si](C)(C)C(C)(C)C)c(=O)[nH]c1=O` (stereo unspecified) cannot be ordered by TGI: greater than 100 µM for the first, greater than 100 µM for the second.

For `CCCCCCCCCCCCCCCCP(=O)(O)OCC(N)C(=O)O` (stereo unspecified), the TGI was greater than 100 µM.
